Data taken from patent US10927348B2, “Human adipose tissue white and ‘brown-on-white’ progenitors for reconstructive and metabolic therapies” (University of Massachusetts, priority 2014, dated 2021).
Entries after “also recorded” stand apart in the source; their conditions may differ. Structures can show the parent of a compound that is named as a salt.

Test system: differentiated HACAPS
Experiment: RT-PCR gene expression in differentiated HACAPS exposed to forskolin or isoproterenol
Assay type: cell-based, human
Conditions: isoproterenol for 6 hours after adipogenic differentiation, hydrochloride

## CC(C)NCC(O)c1ccc(O)c(O)c1 (stereo not shown) [isoproterenol, Isoproterenol hydrochloride]
  UCP1 mRNA expression: acute increase; also recorded: pronounced increase
